According to patent US11987588B2, “Modulators of the beta-3 adrenergic receptor useful for the treatment or prevention of heart failure and disorders related thereto” (Arena Pharmaceuticals, Inc., priority 2017, dated 2024):
pIC50: −log10 of the molar value.

What follows are molecules tested against Beta-3 Adrenergic Receptor (Homo sapiens (Human), UniProt P13945) (assay: Homogeneous Time-Resolved Fluorescence (HTRF) cAMP antagonist assay, IC50 determination). Conditions: CHO-K1 cells stably expressing recombinant receptor, isoproterenol at EC90.
Type: cell-based
Outline: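 CHO-K1 cells stably expressing receptor, 1500 cells/well, preincubated briefly with 10-point 5-fold compound series (top final typically 10 or 100 μM) in PBS with 1 mM IBMX, then challenged with isoproterenol at EC90 for 1 h at room temperature. cAMP read by HTRF against on-plate standard curve; IC50 from dose-response.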

Beta-3 Adrenergic Receptor, sequence (P13945 whole entry, species assumed): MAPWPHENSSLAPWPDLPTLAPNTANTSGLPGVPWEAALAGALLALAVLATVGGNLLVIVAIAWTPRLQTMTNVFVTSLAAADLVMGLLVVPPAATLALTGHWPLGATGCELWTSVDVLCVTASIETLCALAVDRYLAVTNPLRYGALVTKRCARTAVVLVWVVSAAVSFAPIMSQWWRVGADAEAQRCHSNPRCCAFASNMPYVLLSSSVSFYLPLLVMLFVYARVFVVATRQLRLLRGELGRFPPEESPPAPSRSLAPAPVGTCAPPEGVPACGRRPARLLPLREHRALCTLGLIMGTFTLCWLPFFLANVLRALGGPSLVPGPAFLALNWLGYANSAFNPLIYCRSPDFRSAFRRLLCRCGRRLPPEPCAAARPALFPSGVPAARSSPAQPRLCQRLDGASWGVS

Row | Structure (SMILES) | pIC50
1 | CNS(=O)(=O)c1cccc(OC[C@@H](O)CNC2COC3(CCN(S(=O)(=O)c4cc(-c5ccc(CN)cc5)ccc4Cl)CC3)C2)c1 (stereo partly drawn) [Compound 377, 3-((2S)-3-(8-(4′-(aminomethyl)-4-chlorobiphenyl-3-ylsulfonyl)-1-oxa-8-azaspiro[4.5]decan-3-ylamino)-2-hydroxypropoxy)-N-methylbenzenesulfonamide] | 7.72
2 | CNS(=O)(=O)c1cccc(OC[C@@H](O)CN[C@H]2COC3(CCN(S(=O)(=O)c4cnc5[nH]nc(C)c5c4)CC3)C2)c1 [Compound 497, 3-((S)-2-hydroxy-3-((R)-8-(3-methyl-1H-pyrazolo[3,4-b]pyridin-5-ylsulfonyl)-1-oxa-8-azaspiro[4.5]decan-3-ylamino)propoxy)-N-methylbenzenesulfonamide] | 7.79
3 | CCNS(=O)(=O)c1cccc(OC[C@@H](O)CNC2COC3(CCN(S(=O)(=O)c4ccc5c(c4)N(C)CCO5)CC3)C2)c1 (stereo partly drawn) [Compound 234, N-ethyl-3-((2S)-2-hydroxy-3-(8-(4-methyl-3,4-dihydro-2H-benzo[b][1,4]oxazin-6-ylsulfonyl)-1-oxa-8-azaspiro[4.5]decan-3-ylamino)propoxy)benzenesulfonamide] | 7.28
4 | CNS(=O)(=O)c1cccc(OC[C@@H](O)CNC2COC3(CCN(S(=O)(=O)c4ccc5c(c4)N(C(C)C)CCO5)CC3)C2)c1 (stereo partly drawn) [Compound 334, 3-((2S)-2-hydroxy-3-(8-(4-isopropyl-3,4-dihydro-2H-benzo[b][1,4]oxazin-6-ylsulfonyl)-1-oxa-8-azaspiro[4.5]decan-3-ylamino)propoxy)-N-methylbenzenesulfonamide] | 7.56
5 | CNS(=O)(=O)c1cccc(OC[C@@H](O)CNC2COC3(CCN(S(=O)(=O)c4cccc(-c5ccc(OCC#N)cc5)c4)CC3)C2)c1 (stereo partly drawn) [Compound 114, 3-((2S)-3-(8-(4′-(cyanomethoxy)biphenyl-3-ylsulfonyl)-1-oxa-8-azaspiro[4.5]decan-3-ylamino)-2-hydroxypropoxy)-N-methylbenzenesulfonamide] | 7.99
6 | CNS(=O)(=O)c1cccc(OC[C@@H](O)CN[C@H]2COC3(CCN(S(=O)(=O)c4cnc5c(c4)CNC5)CC3)C2)c1 [Compound 482, 3-((S)-3-((R)-8-(6,7-dihydro-5H-pyrrolo[3,4-b]pyridin-3-ylsulfonyl)-1-oxa-8-azaspiro[4.5]decan-3-ylamino)-2-hydroxypropoxy)-N-methylbenzenesulfonamide] | 5.82
7 | CNS(=O)(=O)c1cccc(OC[C@@H](O)CNC2COC3(CCN(S(=O)(=O)c4cccc(-c5cccc(C#N)c5)c4)CC3)C2)c1 (stereo partly drawn) [Compound 72, 3-((2S)-3-(8-(3′-cyanobiphenyl-3-ylsulfonyl)-1-oxa-8-azaspiro[4.5]decan-3-ylamino)-2-hydroxypropoxy)-N-methylbenzenesulfonamide] | 7.54
8 | CCCNS(=O)(=O)c1cccc(OC[C@@H](O)CNC2COC3(CCN(S(=O)(=O)c4ccc5ccccc5c4)CC3)C2)c1 (stereo partly drawn) [Compound 2, 3-((2S)-2-hydroxy-3-(8-(naphthalen-2-ylsulfonyl)-1-oxa-8-azaspiro[4.5]decan-3-ylamino)propoxy)-N-propylbenzenesulfonamide] | 7.68
9 | CNS(=O)(=O)c1cccc(OC[C@@H](O)CNC2COC3(CCN(S(=O)(=O)c4ccc5nsnc5c4)CC3)C2)c1 (stereo partly drawn) [Compound 177, 3-((2S)-3-(8-(benzo[c][1,2,5]thiadiazol-5-ylsulfonyl)-1-oxa-8-azaspiro[4.5]decan-3-ylamino)-2-hydroxypropoxy)-N-methylbenzenesulfonamide] | 7.92
10 | CNS(=O)(=O)c1cccc(OC[C@@H](O)CN[C@H]2COC3(CCN(c4nccc(-c5ccccc5)n4)CC3)C2)c1 [Compound 572, 3-((S)-2-hydroxy-3-((R)-8-(4-phenylpyrimidin-2-yl)-1-oxa-8-azaspiro[4.5]decan-3-ylamino)propoxy)-N-methylbenzenesulfonamide] | 7.18
11 | CNS(=O)(=O)c1cccc(OC[C@@H](O)CN[C@@H]2COC3(CCN(S(=O)(=O)c4cccc(-c5ccc(CN)cc5)c4C)CC3)C2)c1 [Compound 447, 3-((S)-3-((S)-8-(4′-(aminomethyl)-2-methylbiphenyl-3-ylsulfonyl)-1-oxa-8-azaspiro[4.5]decan-3-ylamino)-2-hydroxypropoxy)-N-methylbenzenesulfonamide] | 7.70
12 | NS(=O)(=O)c1cccc(OC[C@@H](O)CN[C@H]2COC3(CCN(S(=O)(=O)c4ccc5ccccc5c4)CC3)C2)c1 [Compound 560, 3-((S)-2-hydroxy-3-((R)-8-(naphthalen-2-ylsulfonyl)-1-oxa-8-azaspiro[4.5]decan-3-ylamino)propoxy)benzenesulfonamide] | 7.72
13 | CNS(=O)(=O)c1cccc(OC[C@@H](O)CN[C@H]2COC3(CCN(c4nc(C)cc(C)n4)CC3)C2)c1 [Compound 577, 3-((S)-3-((R)-8-(4,6-dimethylpyrimidin-2-yl)-1-oxa-8-azaspiro[4.5]decan-3-ylamino)-2-hydroxypropoxy)-N-methylbenzenesulfonamide] | 6.99
14 | O=S(=O)(NC(CO)CO)c1cccc(OC[C@@H](O)CNC2COC3(CCN(S(=O)(=O)c4ccc5ccccc5c4)CC3)C2)c1 (stereo partly drawn) [Compound 95, N-(1,3-dihydroxypropan-2-yl)-3-((2S)-2-hydroxy-3-(8-(naphthalen-2-ylsulfonyl)-1-oxa-8-azaspiro[4.5]decan-3-ylamino)propoxy)benzenesulfonamide] | 6.80
15 | CCN1CCOc2ccc(S(=O)(=O)N3CCC4(CC3)C[C@@H](NC[C@H](O)COc3cccc(S(=O)(=O)NC)c3)CO4)cc21 [Compound 351, 3-((S)-3-((R)-8-(4-ethyl-3,4-dihydro-2H-benzo[b][1,4]oxazin-6-ylsulfonyl)-1-oxa-8-azaspiro[4.5]decan-3-ylamino)-2-hydroxypropoxy)-N-methylbenzenesulfonamide] | 7.41
16 | CNS(=O)(=O)c1cccc(OC[C@@H](O)CN[C@H]2COC3(CCN(S(=O)(=O)c4cc5c(nc4O)OCCN5C)CC3)C2)c1 [Compound 454, 3-((S)-2-hydroxy-3-((R)-8-(6-hydroxy-1-methyl-2,3-dihydro-1H-pyrido[2,3-b][1,4]oxazin-7-ylsulfonyl)-1-oxa-8-azaspiro[4.5]decan-3-ylamino)propoxy)-N-methylbenzenesulfonamide] | 6.34
17 | CNS(=O)(=O)c1cccc(OC[C@@H](O)CNC2COC3(CCN(S(=O)(=O)c4cc(C)cc(Br)c4)CC3)C2)c1 (stereo partly drawn) [Compound 219, 3-((2S)-3-(8-(3-bromo-5-methylphenylsulfonyl)-1-oxa-8-azaspiro[4.5]decan-3-ylamino)-2-hydroxypropoxy)-N-methylbenzenesulfonamide] | 7.60
18 | CNS(=O)(=O)c1cccc(OC[C@@H](O)CN[C@H]2COC3(CCN(c4cnc(C(F)(F)F)cn4)CC3)C2)c1 [Compound 585, 3-((S)-2-hydroxy-3-((R)-8-(5-(trifluoromethyl)pyrazin-2-yl)-1-oxa-8-azaspiro[4.5]decan-3-ylamino)propoxy)-N-methylbenzenesulfonamide] | 6.69
19 | CN(C)CCCNS(=O)(=O)c1cccc(OC[C@@H](O)CNC2COC3(CCN(S(=O)(=O)c4ccc5ccccc5c4)CC3)C2)c1 (stereo partly drawn) [Compound 317, N-(3-(dimethylamino)propyl)-3-((2S)-2-hydroxy-3-(8-(naphthalen-2-ylsulfonyl)-1-oxa-8-azaspiro[4.5]decan-3-ylamino)propoxy)benzenesulfonamide] | 6.00
20 | CCNS(=O)(=O)c1cccc(OC[C@@H](O)CNC2COC3(CCN(S(=O)(=O)c4cc(C)ccc4F)CC3)C2)c1 (stereo partly drawn) [Compound 226, N-ethyl-3-((2S)-3-(8-(2-fluoro-5-methylphenylsulfonyl)-1-oxa-8-azaspiro[4.5]decan-3-ylamino)-2-hydroxypropoxy)benzenesulfonamide] | 6.81
21 | O=S(=O)(NC1(CO)CC1)c1cccc(OC[C@@H](O)CNC2COC3(CCN(S(=O)(=O)c4ccc5ccccc5c4)CC3)C2)c1 (stereo partly drawn) [Compound 99, 3-((2S)-2-hydroxy-3-(8-(naphthalen-2-ylsulfonyl)-1-oxa-8-azaspiro[4.5]decan-3-ylamino)propoxy)-N-(1-(hydroxymethyl)cyclopropyl)benzenesulfonamide] | 6.92
22 | CNS(=O)(=O)c1cccc(OC[C@@H](O)CNC2COC3(CCN(S(=O)(=O)c4ccc(OC(C)C)cc4)CC3)C2)c1 (stereo partly drawn) [Compound 137, 3-((2S)-2-hydroxy-3-(8-(4-isopropoxyphenylsulfonyl)-1-oxa-8-azaspiro[4.5]decan-3-ylamino)propoxy)-N-methylbenzenesulfonamide] | 7.62
23 | CCCCCCCc1cnc(N2CCC3(CC2)C[C@@H](NC[C@H](O)COc2cccc(S(=O)(=O)NC)c2)CO3)nc1 [Compound 578, 3-((S)-3-((R)-8-(5-heptylpyrimidin-2-yl)-1-oxa-8-azaspiro[4.5]decan-3-ylamino)-2-hydroxypropoxy)-N-methylbenzenesulfonamide] | 6.37
24 | CNS(=O)(=O)c1cccc(OC[C@@H](O)CNC2COC3(CCN(S(=O)(=O)c4ccc5ncccc5c4)CC3)C2)c1 (stereo partly drawn) [Compound 323, 3-((2S)-2-hydroxy-3-(8-(quinolin-6-ylsulfonyl)-1-oxa-8-azaspiro[4.5]decan-3-ylamino)propoxy)-N-methylbenzenesulfonamide] | 7.61
25 | CNS(=O)(=O)c1cccc(OC[C@@H](O)CNC2COC3(CCN(S(=O)(=O)c4ccc(-c5nn[nH]n5)cc4)CC3)C2)c1 (stereo partly drawn) [Compound 410, 3-((2S)-3-(8-(4-(2H-tetrazol-5-yl)phenylsulfonyl)-1-oxa-8-azaspiro[4.5]decan-3-ylamino)-2-hydroxypropoxy)-N-methylbenzenesulfonamide] | 6.41
26 | CNS(=O)(=O)c1cccc(OC[C@@H](O)CNC2COC3(CCN(S(=O)(=O)c4cc(Cl)ccc4F)CC3)C2)c1 (stereo partly drawn) [Compound 144, 3-((2S)-3-(8-(5-chloro-2-fluorophenylsulfonyl)-1-oxa-8-azaspiro[4.5]decan-3-ylamino)-2-hydroxypropoxy)-N-methylbenzenesulfonamide] | 7.91
